“Also recorded” adds a separate entry of the source.
Key:
[1] = system: primary rat neuronal cortical culture exposed to NMDA; experiment: Neuroprotection from NMDA mediated cell death in primary neuronal culture (LDH release); format: cell-based; settings: for reduced LDH release: concentration not given
Protocol: Peptides of 5 amino acids in length were applied to one or more samples of cells in parallel at concentrations ranging from about 0 to about 50 μM, such as 0.3, 3, and 30 μM. The peptides AL-10-1 (SEQ ID NO:18) and VL-17-9 (SEQ ID NO:19), which are longer peptides (12 amino acids each) were used as negative and positive controls, respectively. A series of peptides were screened in primary rat neuronal cortical culture exposed to NMDA using the method described in Aono et al., Neuroscience (2003) 116:437 and Aono et al., Neurobiology of Disease (2002) 11:214, both of which are incorporated by reference in their entirety (see Table 2). Neuroprotection from NMDA mediated cell death in primary neuronal culture was expressed as percentage decrease in LDH, 24 hours after exposure to NMDA compared to vehicle treated cultures (Table 2). LDH release is indicative of neuronal death after NMDA exposure. The peptide VR-55 (SEQ ID NO:4) reduced NMDA mediated excitotoxic cell death by approximately 19% at a concentration of 1 μM. […] The positive control peptide VL-17-9 reduced LDH release by 31%.
Dose response of the neuroprotection from NMDA excitotoxicity in primary neuronal culture was determined for ApoE mimetic peptide VR-55 (SEQ ID NO: 4). […] “0” indicates less than 5% suppression; “+” indicates 5-10% suppression; “++” indicates 11-20% suppression; and “+++” indicates greater than 20% suppression. In addition to VL-17-9, several other candidates had greater than 20% suppression, including VR-55, VL-5-1, VL-5-2 and VR-52.

[2] = system: mixed glial primary culture; experiment: Suppression of TNF-α release in mixed glial primary culture after exposure to LPS; format: cell-based, murine; settings: FIGS. 11A and 11B
Protocol: (§1) In vitro methods have been developed using cultured cells for evaluating the ability of a compound, such as a peptide, to suppress glial activation. Laskowitz et al., (2001) Exp. Neurol., 167:74-85. Glial cell cultures were grown and maintained under standard conditions. Cultured glial cells may include primary murine mixed glial cell cultures, murine BV-2 microglial cells, and human C3 microglial cells. Adherent glial cells were washed with OptiMEM® medium (available from Invitrogen Corp.) to remove serum and covered with fresh OptiMEM® medium containing peptide.
Larger peptides or proteins may need to be tested at higher concentrations to observe measurable suppression of glial activation. If using primary murine cells and BV-2 cells, cells are stimulated with 100 ng/ml E. coli LPS (available from Sigma-Aldrich Co.), and supernatant is collected six hours after LPS stimulation and assayed for nitrite (using a colorimetric Griess reagent system, available from Promega Corp.) and/or TNF-α (using a solid-phase ELISA kit, available from Invitrogen Corp.). If using human C3 cells, cells are stimulated with 200 μg/ml polyinosinic acid 5′ (available from Sigma-Aldrich Co.), and supernatant is collected 5 days after stimulation and assayed for TNF-α using a solid-phase ELISA kit (available from Invitrogen Corp.).
The protective activity against brain injury-downregulating CNS inflammatory response was determined for ApoE mimetic peptides, VR-55 (SEQ ID NO: 4), VL-5-1 (SEQ ID NO: 5) and VL-5-3 (SEQ ID NO: 10).

[3] = system: BV-2 murine microglial cells; experiment: Suppression of LPS-stimulated TNF-α production in BV-2 microglial cells (ELISA); format: cell-based; settings: peptide 0.3, 3 or 30 μM; LPS 100 ng/mL, six hours; FIG. 1; listed as SEQ ID NO:3
Protocol: Cultured BV-2 murine microglial cells were incubated with either the indicated concentrations of peptide (SEQ ID NO:3) or a negative control peptide (SEQ ID NO:13) and stimulated with lipopolysaccharide (LPS) (100 ng/mL) for six hours. After six hours, supernatants were harvested and the concentration of secreted TNF-α was measured by ELISA (**p<0.01; ANOVA).
as §1
Larger peptides or proteins may need to be tested at higher concentrations to observe measurable suppression of glial activation. […]
Murine BV-2 cultures were prepared and used to evaluate suppression of microglial activation as described in Example 1. […] Each sample was stimulated with LPS and assessed for TNF-α production as described in Example 1.

[4] = system: mice with traumatic brain injury; experiment: Rotorod vestibulomotor function after traumatic brain injury; format: in vivo, mouse; settings: 0.05 mg/kg or 0.2 mg/kg iv at 2 h and 6 h after traumatic brain injury
Protocol: An experimental murine model for traumatic brain injury was developed. Laskowitz, et al. (2010) J. Neurotrauma, 27:1983-95. Male mice (age 12-14 weeks) were anesthetized with 4.3% isoflurane in oxygen in an anesthesia induction box for 90 seconds. The trachea was intubated and the lungs mechanically ventilated with 1.4% isoflurane in a 50/50 mixture of oxygen and nitrogen. Body temperature was maintained at 37° C. using surface heating/cooling. The top of the skull was exposed by a midline incision to identify anatomical landmarks, and a concave 3-mm metallic disc was secured to the skull surface with an adhesive, directly midline and just caudal to the bregma. The disc diffused the energy of impact and reduced the incidence of depressed skull fracture to less than 10%. After general anesthesia, mice were positioned in a stereotactic device and the skull was exposed. A pneumatic impactor (diameter: 2.0 mm; available from Air-Power, Inc.) discharged at 6.8±0.2 m/s with a head displacement of 3 mm was used to deliver a single midline impact to the disc surface.
An experimental procedure for measuring neurological deficits was developed. An automated rotorod (available from Ugo Basile North America, Inc.) was used to assess vestibulomotor function. On the day before experimental induction of a neurological condition or injury (such as, for example, traumatic brain injury or intracerebral hemorrhage as described above), mice under went two consecutive conditioning trials at a set rotational speed (16 revolutions per minute) for 60 seconds followed by three additional trials with an accelerating rotational speed. The average time to fall from the rotating cylinder in the latter three trials was recorded as baseline latency. After injury, mice under went consecutive daily testing with three trials of accelerating rotational speed (intertribal interval of 15 minutes). Average latency to fall from the rod was recorded, and mice unable to grip the rod were scored with a latency of 0 seconds.
Groups of mice received either an ApoE mimetic peptide (SEQ ID NO:3; 0.05 mg/kg or 0.2 mg/kg) or carrier (saline) by intravenous tail vein injection at 2 hours and again at 6 hours after traumatic brain injury induced as described in Example 3. Each mouse was tested for vestibulomotor function by rotorod latency measured before and after injury, as described in Example 3.
Groups of mice received either an ApoE mimetic peptide (SEQ ID NO:4; 0.05 mg/kg) or carrier (saline) by intravenous tail vein injection at 2 hours and again at 6 hours after traumatic brain injury induced as described in Example 3. Each mouse was tested for vestibulomotor function by rotorod latency measured before and after injury, as described in Example 3. […]

| Substance | percentage decrease in LDH, 24 hours after exposure to NMDA compared to vehicle treated cultures ([1]; peptide 1 μM) | suppression of LDH release, cumulative data (class) ([1]; peptide 1 μM) | also measured |
| --- | --- | --- | --- |
| Ac-VSRKR-NH2 [VR-52] | 12.63% | +++ (greater than 20% suppression) |  |
| Ac-RSKKL-NH2 [RL-5-3] | −20.80% | 0 (less than 5% suppression) |  |
| Ac-ASHLRKLRKRLL-NH2 [AL-10-1, reference compound] | −6.21% | 0 (less than 5% suppression) |  |
| Ac-VARKL-NH2 [VL-5-1] | 24.48% | +++ (greater than 20% suppression) | release of inflammatory cytokine TNF-α [2]: inhibition of microglial TNF-α secretion; also recorded: suppress the release of inflammatory cytokine TNF-α; percentage decrease in LDH, 24 hours after exposure to NMDA compared to vehicle treated cultures ([1]; peptide 0.1 μM): 18.57%; percentage decrease in LDH, 24 hours after exposure to NMDA compared to vehicle treated cultures ([1]; peptide 0.3 μM): 0.29% |
| Ac-RSKRR-NH2 [RR-5-2] | 0.08% | 0 (less than 5% suppression) |  |
| Ac-RHKRR-NH2 [RR-5-1] | 7.50% | + (5-10% suppression) |  |
| Ac-VSKKR-NH2 [VR-54, negative control peptide, reference compound] | −15.91% | ++ (11-20% suppression) |  |
| Ac-VARKL-NH2 [VL-5-2] | 34.26% | +++ (greater than 20% suppression) | reduced LDH release [1]: 31% |
| Ac-VARRL-NH2 [VL-5-3] | 11.50% | ++ (11-20% suppression) | release of inflammatory cytokine TNF-α [2]: inhibition of microglial TNF-α secretion; also recorded: suppress the release of inflammatory cytokine TNF-α; percentage decrease in LDH, 24 hours after exposure to NMDA compared to vehicle treated cultures ([1]; peptide 0.1 μM): −19.04%; percentage decrease in LDH, 24 hours after exposure to NMDA compared to vehicle treated cultures ([1]; peptide 0.3 μM): −16.70% |
| Ac-RARRL-NH2 [RL-5-2] | −5.23% | 0 (less than 5% suppression) |  |
| Ac-VSKRR-NH2 [VR-53] | 7.03% | + (5-10% suppression) | TNF-α production relative to untreated cells or negative control peptide [3]: inhibition of microglial TNF-α secretion; also recorded: decreased TNF-α production; durability of effect on rotorod latency [4]: durable through the five-day testing period; vestibulomotor performance (rotorod latency) compared to carrier ([4]; FIG. 2, listed as SEQ ID NO:3): significantly improved vestibulomotor performance |
| Ac-LRVRLASLLRKL-NH2 [VL-17-9, longer peptide (12 amino acids) used as positive control, reference compound] | 30.95% | +++ (greater than 20% suppression) | reduced LDH release [1]: 31%; percentage decrease in LDH, 24 hours after exposure to NMDA compared to vehicle treated cultures ([1]; peptide 0.1 μM): 16.19% |
| Ac-RHKKL-NH2 [RL-5-1] | −2.85% | ++ (11-20% suppression) |  |

Reference: patent publication US12071469B2, “Peptide compounds for suppressing inflammation” (Duke University, priority 2011, dated 2024)
